# According to the supplement of paper PMC8497498:
# Structures can show the parent of a compound that is named as a salt.
# Key:
# [1] = test system: Plasmodium vivax liver stage (primary human hepatocyte culture)
# Experimental: (§1)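 Dose-response of P. vivax liver stages in primary human hepatocytes, with 8 points (10 uM-[…], v1) or 12 points in duplicate (50 uM-280 pM, v2). Read-out is high-content imaging of schizont net growth area, hypnozoite quantity and hepatic nuclei. EC50 and CC20 (20% nuclei loss) were fitted in CDD Vault from the highest-quality independent experiment; toxic-dose bell-shaped points were masked. '>' marks the highest concentration with less than 50% activity, and ND means a non-sigmoidal curve.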
# [2] = test system: Plasmodium vivax liver stage (primary human hepatocyte culture); assay: maximum inhibition of schizont net growth area; higher = more active
# Experimental: as §1
# [3] = test system: primary human hepatocytes; assay: CC20 hepatic nuclei (20% reduction); higher = less toxic
# Experimental: as §1
# [4] = P. vivax isolate: Pv458, hepatocyte lot: UBV, assay mode: Radical Cure, 8-day (treatment from day 5 post-infection)
# [5] = P. vivax isolate: Pv357, hepatocyte lot: UBV, assay mode: Radical Cure, 8-day (treatment from day 5 post-infection)
# [6] = P. vivax isolate: Pv657, hepatocyte lot: BGW, assay mode: Radical Cure, 8-day (treatment from day 5 post-infection)
# [7] = P. vivax isolate: Pv590, hepatocyte lot: UBV, assay mode: Radical Cure, 8-day (treatment from day 5 post-infection)
# [8] = P. vivax isolate: Pv728, hepatocyte lot: BGW, assay mode: Radical Cure, 8-day (treatment from day 5 post-infection)
# [9] = P. vivax isolate: Pv914, hepatocyte lot: BGW, assay mode: Prophylactic, 6-day
# [10] = P. vivax isolate: Pv395, hepatocyte lot: UBV, assay mode: Radical Cure, 8-day (treatment from day 5 post-infection)
smiles,measurement,setting,value
O=c1c(Cl)c(Cl)cnn1-c1nc2ccccc2[nH]1,EC50 hypnozoite quantity,[1]; [4],> 3.33 µM
same,maximum inhibition,[2]; [4],89.7%
same,CC20 hepatic nuclei,[3]; [4],> 3.33 µM
CCC(C(=O)C(C)C(O)C(C)CCc1ccc(C)c(O)c1C(=O)[O-])C1OC(CC)(C2CCC(O)(CC)C(C)O2)CC1C.[Na+] (centres undefined) [Lasalocid-A],EC50 hypnozoite quantity,[1]; [5],1.05 µM
same,EC50 schizont net growth area,[1]; [5],0.0431 µM
same,maximum inhibition,[2]; [5],100%
same,CC20 hepatic nuclei,[3]; [5],> 10 µM
O=C(Nc1ccc([N+](=O)[O-])cc1)Nc1cc(OCC(F)(F)F)cc(OCC(F)(F)F)c1,EC50 hypnozoite quantity,[1]; [4],> 10 µM
same,EC50 schizont net growth area,[1]; [4],3.33 µM
same,maximum inhibition,[2]; [4],75.3%
same,CC20 hepatic nuclei,[3]; [4],> 3.33 µM
CC(C)(C)n1nc(-c2ccccc2)c2c(N)ncnc21,EC50 hypnozoite quantity,[1]; [6],> 50 µM
same,EC50 schizont net growth area,[1]; [6],> 16.7 µM
same,maximum inhibition,[2]; [6],76.7%
same,CC20 hepatic nuclei,[3]; [6],> 50 µM
CCOc1ccc2nc(C)cc(Nc3ccc(N(C)C)cc3)c2c1,EC50 hypnozoite quantity,[1]; [7],> 50 µM
same,EC50 schizont net growth area,[1]; [7],> 16.7 µM
same,maximum inhibition,[2]; [7],84.6%
same,CC20 hepatic nuclei,[3]; [7],16.2 µM
O=C(O)c1cn(C2CC2)c2cc(N3CCNCC3)c(F)cc2c1=O [Ciprofloxacin],EC50 hypnozoite quantity,[1]; [8],> 10 µM
same,EC50 schizont net growth area,[1]; [8],> 10 µM
same,maximum inhibition,[2]; [8],59.2%
same,CC20 hepatic nuclei,[3]; [8],> 10 µM
C[C@H]1c2cccc(O)c2C(=O)C2=C(O)[C@]3(O)C(=O)C(C(N)=O)=C(O)[C@@H](N(C)C)C3[C@@H](O)C21 (some centres undefined) [Doxycycline hydrochloride],EC50 hypnozoite quantity,[1]; [9],> 10 µM
same,EC50 schizont net growth area,[1]; [9],> 0.37 µM
same,maximum inhibition,[2]; [9],68.3%
same,CC20 hepatic nuclei,[3]; [9],> 10 µM
Cc1sc2ncnc(Sc3nc4ccccc4[nH]3)c2c1C,EC50 hypnozoite quantity,[1]; [7],> 50 µM
same,EC50 schizont net growth area,[1]; [7],1.62 µM
same,maximum inhibition,[2]; [7],92.9%
same,CC20 hepatic nuclei,[3]; [7],46.9 µM
CCC[C@@H]1C[C@@H](C(=O)N[C@@H]([C@H]2O[C@H](SC)[C@H](O)[C@@H](O)[C@H]2O)[C@H](C)Cl)N(C)C1 [Clindamycin hydrochloride],EC50 hypnozoite quantity,[1]; [9],> 50 µM
same,EC50 schizont net growth area,[1]; [9],0.00597 µM
same,maximum inhibition,[2]; [9],79.5%
same,CC20 hepatic nuclei,[3]; [9],> 50 µM
c1ccc(-c2csc(Nc3nc4cc5c(cc4s3)OCO5)n2)nc1,EC50 hypnozoite quantity,[1]; [10],> 10 µM
same,EC50 schizont net growth area,[1]; [10],> 3.33 µM
same,maximum inhibition,[2]; [10],72.6%
same,CC20 hepatic nuclei,[3]; [10],> 10 µM
